Results reported in patent publication US20240336657A1, “G-ALPHA-S PEPTIDE INHIBITORS AND USES THEREOF” (The Regents of the University of California, priority 2021, published 2024).
Positions of bridges follow the written chain, without caps; N, C: chain ends. Non-standard residues stand in square brackets, D forms with d. Residues, ends and D or L forms follow the SMILES beside them.

Assays:
Gαi = Gαi (Homo sapiens, UniProt P63096); test: Nucleotide exchange step (GDP dissociation / GTPγS binding); type: biochemical; details: compared with Gαs
Experimental: Gα proteins were diluted to 400 nM in the EDTA buffer (20 mM HEPES 7.5, 150 mM NaCl, 1 mM EDTA-Na 8.0, 2 mM DTT). [^3H]GDP (1 mCi/mL, 25.2 μM) was added to a final concentration of 1.2 μM, followed by cyclic peptides addition. After incubation at 20° C. for 30 minutes, the same volume of assay buffer ([…] HEPES-Na 7.5, 150 mM NaCl, 2 mM MgCl2, and 1 mM GDP) was added to initiate [^3H]GDP dissociation. At various points, […] was removed and mixed with 390 μL of ice-cold wash buffer (20 mM HEPES 7.5, 150 mM NaCl, 20 mM MgCl2). The mixture was immediately filtered through a mixed cellulose membrane (25 mm, 0.22 μm) held by a microanalysis filter holder (EMD Millipore). The membrane was washed by ice-cold wash buffer (500 μL×3), put in a 6-mL plastic vial and air-dried (room temperature 1.5 h). 5 mL of CytoScint-ES Liquid Scintillation Cocktail was added to each vial. After incubation overnight at room temperature, the vial was used for liquid scintillation counting with a LS 6500 Multi-Purpose Scintillation Counter.
Gα proteins were diluted to 10 μM with dilution buffer (20 mM HEPES 7.5, 150 mM NaCl, 1 mM MgCl2, 2 mM DTT, and 20 μM GDP) and incubated with 5× stocks of cyclic peptides at room temperature for 2 hours. GTPγS binding was initiated by mixing with the reaction buffer at room temperature (50 nM [35S]GTPγS and 100 μM GTPγS in dilution buffer) at room temperature. […]

WT Gαs = WT Gαs (Homo sapiens, UniProt P63092); test: Adenylyl cyclase activity assay in membranes of GNAS KO HEK293 cells transfected with WT Gαs; type: biochemical; design: expressed in transfected cells; host or cells: GNAS KO HEK293 cells (membranes); details: WT Gαs reintroduced by transient transfection
Description: To further assess the cellular specificity of GN13, we designed a GN13-resistant Gαs mutant based on structural analysis. […] We reasoned that mutating this serine residue to a bulky residue should create a drug-resistant Gαs mutant that blocks the GN13-Gαs interaction but would have little effect on adenylyl cyclase activation. […] By contrast, when the drug resistant mutant Gαs S275L was reintroduced into GNAS KO cells, the inhibitory effect of GN13 was abolished (FIG. 3I), providing further evidence that the observed pharmacological activity is due to GN13 binding to the switch II/α3 pocket in Gαs.
GN13 inhibition of Gαs proteins in HEK293 cell membranes (FIG. 17F and FIG. 18F).
a. Cell membrane preparation: HEK293cells, GNAS KO HEK293 cells were plated two day before transfection at a density of 1M cells per 10 cm plate. […] The protein concentrations were measured using BCA, and were normalized to 750 μg/mL. […] The cAMP concentrations were measured by the LANCE Ultra cAMP kit. […]
A cAMP standard curve was generated in the same plate using the 50 μM cAMP standard in the kit. […] 10 μL of each diluted sample was mixed with 5 μL of 4× Eu-cAMP tracer and 5 μL of 4× ULight-anti-cAMP in a white, opaque Optiplate-384 microplate, incubated for 1 hour at room temperature, and the time-resolved fluorescence resonance energy transfer (TR-FRET) signals were read on a Spark 20M plate reader. […]

Chain of Gαi (P63096 whole entry): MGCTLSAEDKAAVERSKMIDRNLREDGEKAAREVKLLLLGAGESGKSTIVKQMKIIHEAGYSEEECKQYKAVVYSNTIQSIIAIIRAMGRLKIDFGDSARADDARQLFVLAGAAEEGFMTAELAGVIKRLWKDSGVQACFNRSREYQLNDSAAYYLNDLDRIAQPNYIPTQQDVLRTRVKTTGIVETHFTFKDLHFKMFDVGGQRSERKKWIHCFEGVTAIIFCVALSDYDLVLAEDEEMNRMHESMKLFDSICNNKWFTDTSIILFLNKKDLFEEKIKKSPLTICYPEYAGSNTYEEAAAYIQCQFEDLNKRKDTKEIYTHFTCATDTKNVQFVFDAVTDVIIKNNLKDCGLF
Chain of WT Gαs (P63092 whole entry): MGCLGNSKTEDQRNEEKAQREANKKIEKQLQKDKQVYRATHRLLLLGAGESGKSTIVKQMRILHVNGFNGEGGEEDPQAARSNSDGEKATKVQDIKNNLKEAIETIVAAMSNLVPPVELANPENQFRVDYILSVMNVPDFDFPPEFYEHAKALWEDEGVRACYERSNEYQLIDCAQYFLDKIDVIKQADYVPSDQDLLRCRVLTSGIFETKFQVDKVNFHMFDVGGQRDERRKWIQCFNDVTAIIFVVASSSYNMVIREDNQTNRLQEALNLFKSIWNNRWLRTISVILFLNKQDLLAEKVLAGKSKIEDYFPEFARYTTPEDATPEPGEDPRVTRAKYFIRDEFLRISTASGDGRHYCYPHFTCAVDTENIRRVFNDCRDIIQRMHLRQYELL

sensitivity of the nucleotide exchange step of Gαi (Gαi): much less sensitive
inhibition of isoproterenol-mediated cAMP production in cell membranes (WT Gαs): able to inhibit
SMILES: CC[C@H](C)[C@@H]1NC(=O)[C@H](C)NC(=O)[C@H](Cc2ccc(O)cc2)NC(=O)[C@H](C(C)C)NC(=O)[C@H](CO)NC(=O)[C@H](CCC(=O)O)NC(=O)[C@H](Cc2ccccc2)NC(=O)[C@@H](Cc2ccc(O)cc2)NC(=O)CSC[C@@H](C(=O)NCC(N)=O)NC(=O)[C@H](CC(C)C)NC(=O)[C@H]([C@@H](C)O)NC(=O)CNC(=O)[C@H](Cc2c[nH]c3ccccc23)NC1=O [GN13] ({CH2CO}-[dY]FESVYAIWGTLCG-NH2; thioether N-13)
